Test results from patent publication US20100184596A1, “METHOD FOR THE CONTROL OF WEEDS IN TURF” (SYNGENTA CROP PROTECTION, INC., priority 2007, published 2010).

Tested on: turfgrass
Assay: Example B4, conclusion in words
Assay type: in vivo
Conditions: applied with Formula I
Protocol: The phytotoxicity to turfgrass of the compound of formula I in combination with various safeners was tested. The combinations were applied by post emergence spray application. Percentage phytotoxicity assessments were taken at various timepoints. The safeners tested in these trials were cloquintocet-mexyl, cyprosulfamide, a compound of formula 2.3, and isoxadifen-ethyl.

Row | SMILES | safener effectiveness, in words
1 | CNC(=O)Nc1ccc(S(=O)(=O)NC(=O)c2ccccc2OC)cc1 [Formula 2.3] | particular effective safeners
2 | COc1ccccc1C(=O)NS(=O)(=O)c1ccc(C(=O)NC2CC2)cc1 [cyprosulfamide] | particular effective safeners
